From patent US20170304388A1, “NEW INDICATION OF CARDIOVASCULAR DRUGS FOR PREPARATION OF CANCER INHIBITION PHARMACEUTICAL COMPOSITION” (LAUNX BIOMEDICAL CO., LTD., priority 2014, published 2017)
Counter-ions that a name gives are not always drawn.

system: cancer cell lines; assay: Growth inhibitory effects on the panel of cancer cell lines; type: cell-based; conditions: drug 10 μM, 72 hours, WST-1

SMILES	inhibition effect on different cancer cell lines (in words)
CNCC(O)c1ccc(O)c(O)c1 (racemic) [DL-Adrenaline]	significant inhibition effect
C[N+](C)(C)CC(O)CC(=O)O.[Cl-] (racemic) [DL-Carnitine hydrochloride]	significant inhibition effect
CC(C)NC[C@@H](O)COc1ccc(CC(N)=O)cc1 [(R)-(+)-Atenolol]	significant inhibition effect
Nc1ncnc2c1ncn2[C@@H]1O[C@H](CO)[C@@H](O)[C@H]1O [Adenosine (Adenocard), Adenosine]	significant inhibition effect
CNCC(=O)c1ccc(O)c(O)c1 [Adrenalone HCl]	significant inhibition effect
COc1cc2nc(N(C)CCCNC(=O)C3CCCO3)nc(N)c2cc1OC (stereo not shown) [Alfuzosin hydrochloride (Uroxatral), Alfuzosin hydrochloride]	significant inhibition effect
NC12CC3CC(CC(C3)C1)C2 [Amantadine hydrochloride (Symmetrel), Amantadine hydrochloride]	significant inhibition effect
N=C(N)NC(=O)c1nc(Cl)c(N)nc1N [Amiloride hydrochloride dihydrate]	significant inhibition effect
CCCCc1oc2ccccc2c1C(=O)c1cc(I)c(OCCN(CC)CC)c(I)c1 [Amiodarone HCl]	significant inhibition effect
CCOC(=O)OC(C)OC1=C(C(=O)Nc2ccccn2)N(C)S(=O)(=O)c2ccccc21 (stereo not shown) [Ampiroxicam]	significant inhibition effect
COc1ccc(C2C(=O)c3ccccc3C2=O)cc1 [Anisindione]	significant inhibition effect
COc1ccc(-n2nc(C(N)=O)c3c2C(=O)N(c2ccc(N4CCCCC4=O)cc2)CC3)cc1 [Apixaban]	significant inhibition effect
CC1CNc2c(cccc2S(=O)(=O)N[C@@H](CCCNC(=N)N)C(=O)N2CC[C@@H](C)C[C@@H]2C(=O)O)C1 (stereo partly shown) [Argatroban]	significant inhibition effect
CCOc1nc2cccc(C(=O)OCc3oc(=O)oc3C)c2n1Cc1ccc(-c2ccccc2-c2noc(=O)[nH]2)cc1 [Azilsartan Medoxomil (TAK-491), Azilsartan Medoxomil]	significant inhibition effect
NS(=O)(=O)c1cc2c(cc1C(F)(F)F)NC(Cc1ccccc1)NS2(=O)=O (stereo not shown) [Bendroflumethiazide]	significant inhibition effect
NS(=O)(=O)c1cc2c(cc1Cl)N=C(CSCc1ccccc1)NS2(=O)=O [Benzthiazide]	significant inhibition effect
N[C@@H]1CCCCN(c2c(F)cc3c(=O)c(C(=O)O)cn(C4CC4)c3c2Cl)C1 [Besifloxacin HCl (Besivance), Besifloxacin HCl]	significant inhibition effect
CC(C)NCC(O)COc1ccc(CCOCC2CC2)cc1 (stereo not shown) [Betaxolol hydrochloride (Betoptic), Betaxolol hydrochloride]	significant inhibition effect
C=C(c1ccc(C(=O)O)cc1)c1cc2c(cc1C)C(C)(C)CCC2(C)C [Bexarotene]	significant inhibition effect
CCNC(=O)CCC/C=C\C[C@@H]1[C@@H](/C=C/[C@@H](O)CCc2ccccc2)[C@H](O)C[C@@H]1O [Bimatoprost]	significant inhibition effect

SMILES	inhibition effect on different cancer cell lines (in words)
CN(Cc1cc(Br)cc(Br)c1N)C1CCCCC1 [Bromhexine HCl]	significant inhibition effect
CS(=O)(=O)OCCCCOS(C)(=O)=O [Busulfan (Myleran, Busulfex), Busulfan]	significant inhibition effect
CCOc1nc2cccc(C(=O)OC(C)OC(=O)OC3CCCCC3)c2n1Cc1ccc(-c2ccccc2-c2nnn[nH]2)cc1 (stereo not shown) [Candesartan cilexetil (Atacand), Candesartan cilexetil]	significant inhibition effect
CC(C)C[C@H](NC(=O)[C@H](CCc1ccccc1)NC(=O)CN1CCOCC1)C(=O)N[C@@H](Cc1ccccc1)C(=O)N[C@@H](CC(C)C)C(=O)[C@@]1(C)CO1 [Carfilzomib (PR-171), Carfilzomib]	significant inhibition effect
COc1ccccc1OCCNCC(O)COc1cccc2[nH]c3ccccc3c12 (stereo not shown) [Carvedilol]	significant inhibition effect
NS(=O)(=O)c1cc2c(cc1Cl)N=CNS2(=O)=O [Chlorothiazide]	significant inhibition effect
CCOC(=O)[C@H](CCc1ccccc1)N[C@H]1CCCN2CCC[C@@H](C(=O)O)N2C1=O [Cilazapril monohydrate (Inhibace), Cilazapril monohydrate]	significant inhibition effect
O=C1CCc2cc(OCCCCc3nnnn3C3CCCCC3)ccc2N1 [Cilostazol]	significant inhibition effect
CCCC(=O)OCOC(=O)C1=C(C)NC(C)=C(C(=O)OC)C1c1cccc(Cl)c1Cl (stereo not shown) [Cleviprex (Clevidipine), Clevidipine]	significant inhibition effect
COC(=O)[C@H](c1ccccc1Cl)N1CCc2sccc2C1 [Clopidogrel (Plavix), Clopidogrel]	significant inhibition effect
CC(C)NCC(O)c1ccccc1Cl (stereo not shown) [Clorprenaline HCL]	significant inhibition effect
Cc1onc(-c2ccccc2Cl)c1C(=O)N[C@@H]1C(=O)N2[C@@H]1SC(C)(C)[C@@H]2C(=O)O [Cloxacillin sodium (Cloxacap), Cloxacillin sodium]	significant inhibition effect
Cc1nc2c([nH]1)-c1ccccc1N(C(=O)c1ccc(NC(=O)c3ccccc3-c3ccccc3)cc1)CC2 [Conivaptan HCl (Vaprisol), Conivaptan HCl]	significant inhibition effect
Nc1ccn([C@@H]2O[C@H](CO)[C@@H](O)[C@H]2O)c(=O)n1 [Cytidine]	significant inhibition effect
OC[C@@H](O)[C@@H](O)[C@H](O)[C@H](O)CO [D-Mannitol (Osmitrol), D-Mannitol]	significant inhibition effect
O=c1c(-c2ccc(O)cc2)coc2cc(O)ccc12 [Daidzein]	significant inhibition effect
Cc1c(O)c(=O)ccn1C [Deferiprone]	significant inhibition effect
Oc1ccc(OC2CCCCO2)cc1 (stereo not shown) [Deoxyarbutin]	significant inhibition effect
C[C@@H](CN1CC(=O)NC(=O)C1)N1CC(=O)NC(=O)C1 [Dexrazoxane Hydrochloride]	significant inhibition effect
NS(=O)(=O)c1cc(Cl)c(Cl)c(S(N)(=O)=O)c1 [Dichlorphenamide (Diclofenamide), Dichlorphenamide]	significant inhibition effect
